Article PMC5059489, “Mechanistic evaluation and transcriptional signature of a glutathione S-transferase omega 1 inhibitor” (Nature Communications, 2016)
Values joined by “and” are separate entries in the source; they are usually repeats but may differ in a detail not shown here. Identical values can stand only once.

Key:
GSTO1 [1] = biological target: T1, GSTO1 (Homo sapiens, UniProt P78417); test: In-gel fluorescence competitive CMFDA binding assay, recombinant GSTO1; conditions: inhibition of CMFDA binding
T1 sequence (P78417 1-241): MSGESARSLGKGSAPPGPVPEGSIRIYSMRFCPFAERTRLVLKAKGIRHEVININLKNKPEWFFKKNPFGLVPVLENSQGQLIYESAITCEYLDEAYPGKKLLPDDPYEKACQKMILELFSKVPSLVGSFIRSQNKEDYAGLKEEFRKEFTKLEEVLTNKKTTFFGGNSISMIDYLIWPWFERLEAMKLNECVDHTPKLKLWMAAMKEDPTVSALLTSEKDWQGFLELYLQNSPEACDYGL
Text: (§1) Primary screening of GSTO inhibitors was based on competitive inhibition of CMFDA binding to endogenous GSTO. Briefly, HCT116^p53+/+ cells (4 × 10^4 per well) were coated in a 12-well plate. […] Cells were then washed with PBS and lysed using Cell Lytic M buffer (Sigma). […] Gels were immediately scanned on a Typhoon variable mode imager (Amersham Bioscience). Quantification of fluorescent band intensity was done using Image Quant 5.2 software.

GSTO1 [2] = biological target: T1, GSTO1; test: GSTO1 substrate assay (reduction of 4-NPG); conditions: for IC50: read-out: GSTO substrate assay IC50, cluster screening tables
Method: For activity screening, we adapted a GSTO1 substrate assay that relies on the quantification of the reduction of S-(4-nitrophenacyl)glutathione (4-NPG), a GSTO1-specific substrate[17], using recombinant human GSTO1 in a high-throughput screening format.
Enzyme activity was measured by monitoring the reduction of 4-NPG to 4-nitroacetophenone by GSTO1.

HCT116p53+/+ cell = test: MTT cell proliferation at single concentration; format: cell-based, human
Method: Cell proliferation was assessed by a MTT assay. Cancer cells were seeded in 96-well microtitre plates and, after overnight attachment, treated with GSTO1 inhibitors. After 72 h, MTT solution (3 mg ml^−1; 20 μl) was added to each well and cells were incubated for 3 h at 37 °C. After incubation, media from each well was removed and the dark blue formazan crystals formed by live cells were dissolved in DMSO (150 μl per well). The absorbance intensity was measured at 570 nm on a microplate reader (Molecular Devices, Sunnyvale, CA, USA). Cell viability after 24 h treatment was assessed using ApoTox-Glo triplex assay (Promega) according to the manufacturer's protocol. At least three independent dose–response experiments with each concentration tested in triplicate were performed for each cell line.

endogenous GSTO1 = biological target: T2, endogenous GSTO1 (Homo sapiens, UniProt P78417); test: In-gel fluorescence competitive CMFDA binding assay, endogenous GSTO1 in HCT116; conditions: 10 µM; inhibition of CMFDA binding, HCT116
T2 sequence (P78417 1-241): T1 sequence (P78417 1-241)
Text: as §1

Compound | GSTO binding assay (% Inhibition at 10 µM) Recombinant (GSTO1 [1]) [%] | GSTO substrate assay % Inhibition at 10 µM (GSTO1 [2]) [%] | % Inhibition of HCT116p53+/+ cell proliferation at 10 µM (HCT116p53+/+ cell) | GSTO binding assay (% Inhibition at 10 µM) Endogenous (endogenous GSTO1) [%] | IC50 (GSTO1 [2]) [nM]
CN(C)C(CNC(=O)CCl)c1ccccc1 (stereo not drawn) [C3-12] | 22.0 | 83.2 | 5% | 9.7 | –
CCOC(=O)c1c(NC(=O)CCl)sc(C(=O)Nc2ccc(C)cc2C)c1C [C2-14] | 57.9 | -7.0 | 6.3% | 58.2 | –
CCN1CCC(NC(=O)CCl)CC1 [C2-1] | -0.8 | 54.8 | 65.6% and 62.7% | 45.0 | –
O=C(CCl)Nc1cc2c(cc1Cl)OCCCO2 [C1-11] | 55.2 | 77.7 | 63.4% and 65.6% | 58.6 | 1160
CC(C)(C)c1ccc(C(=O)NNC(=O)CCl)cc1 [C3-20] | 3.9 | 42.7 | 29.1% | 32.9 | –
Cc1ccc(C)c(S(=O)(=O)N2CCN(C(=O)CCl)CC2)c1 [C5-12] | 66.0 | 84.9 | 7.3% | 47.1 | –
N#Cc1ccccc1S(=O)(=O)N1CCN(C(=O)CCl)CC1 [C5-13] | 61.1 | 98.1 | 81.1% and 55.9% | 66.2 | 156
O=C(CCl)Nc1ccnn1Cc1cccc(Cl)c1 [C2-7] | 56.0 | 79.7 | 85.7% and 91% | 55.3 | 598
O=C(CCl)N1CCN(c2ccc(O)cc2)CC1 [C5-4] | 13.5 | 41.0 | 81.9% and 84.4% | 33.4 | –
CCOC(=O)c1c(NC(=O)CCl)sc2c1CCN(CC)C2 [C2-17] | 51.5 | 77.2 | 85.2% and 94.5% | 24.8 | –
O=C(CCl)Nc1cc(C2CC2)nn1-c1ccccc1 [C2-5] | 64.1 | 4.4 | -2.7% and -8.6% | 69.4 | –
O=C(CCl)NCCCSc1ccccc1 [C3-14] | 38.8 | 78.4 | 28.5% | 56.4 | –
O=C(CCl)N1CCN(Cc2ccccc2F)CC1 [C5-7] | 65.1 | 72.8 | -2.0% and -4.5% | 53.1 | 338
CC(NC(=O)CCl)C12CC3CC(CC(C3)C1)C2 (stereo not drawn) [C3-33] | 16.6 | 36.3 | 24.7% and 38.5% | 55.3 | –
O=C(CCl)NNC(=O)c1cc2c(s1)CCCC2 [C3-23] | -4.1 | -3.5 | 3.7% | -11.7 | –
CN(CC(=O)N1CCOCC1)C(=O)CCl [C4-12] | -4.7 | 81.7 | 91.1% and 92.6% | -29.3 | –
Cc1cccc2sc(N(Cc3ccccc3)C(=O)CCl)nc12 [C4-16] | 66.3 | 32.6 | 86.3% and 89.8% | 30.0 | –
Cc1ccc(C)c(-n2nc(C)cc2NC(=O)CCl)c1 [C2-4] | 35.8 | 0.5 | 81.4% and 84.4% | 51.3 | –
O=C(CCl)Nc1nc(-c2c[nH]c3ccccc23)cs1 [C2-25] | 75.7 | 3.7 | 0.5% and 4.3% | – | –
CC1Cc2cc(S(N)(=O)=O)ccc2N1C(=O)CCl (stereo not drawn) [C5-20] | 68.1 | 61.0 | 80.5% and 89.8% | – | 2290
O=C(CCl)N1CCN(S(=O)(=O)c2ccc3c(c2)OCCO3)CC1 [C5-15] | 62.4 | 63.7 | 82.7% and 87.3% | – | 262
COc1cc(OC)c(OC)cc1CNC(=O)CCl [C3-4] | -2.6 | 31.6 | 16% and 17.5% | – | –
C=CCOc1ccccc1CN(C(=O)CCl)c1ccc2c(c1)OCCO2 [C4-17] | 69.3 | 70.2 | 29% | – | 902
Cc1cc(C(C)(C)C)cc(C)c1NC(=O)CCl [C1-1] | 17.7 | 16.2 | 14% and 21.3% | – | –
CN(C)S(=O)(=O)c1ccc2c(c1)CCCN2C(=O)CCl [C5-18] | 69.7 | 72.7 | 91.6% and 91.4% | – | 164
CN(C1CCCCC1)S(=O)(=O)c1ccc(NC(=O)CCl)cc1 [C1-25] | 70.3 | 9.8 | 11.3% and 21.7% | – | –
Cc1ccc(-c2oc(NC(=O)CCl)c(C#N)c2-c2ccc(C)cc2)cc1 [C2-28] | 59.5 | -2.8 | 88.5% | – | –
O=C(CCl)N1CCN(c2ncc(C(F)(F)F)cc2Cl)CC1 [C5-6] | 70.2 | 94.6 | 56.2% | – | 191
NC(=O)CCN(C(=O)CCl)c1ccccc1 [C4-3] | -1.7 | 32.3 | 70.6% and 71.9% | – | –
